{"source": "patent US7741372B2", "about": "“Guanylhydrazones useful for treating diseases associated with T cell activation” (Cytokine PharmaSciences, Inc., priority 1996, dated 2010)", "key": {"HIV-1": {"tested_on": "HIV-1", "conditions": "AIDS patients; cited from earlier work"}, "MIP 1α and MIP 1β": {"tested_on": "MIP 1α and MIP 1β", "assay": "MIP-1α and MIP-1β levels by sandwich ELISA in HIV 1-LAV infected primary T cells", "type": "cell-based, human", "description": "Assays were done in triplicate and error bars represent standard deviation of the mean.\nBecause ideal anti-HIV therapies would not interfere with the ability of the host to mount its own defense, it was also evaluated whether inhibition of the p38 MAP kinase signal transduction pathway inhibits chemokine production in T cells. Levels of MIP 1α and MIP 1β during LAV infection of primary T cells were not decreased by CNI-1493 (FIG. 4). MIP 1α and 1β levels dropped slightly late in HIV-1 infection (day 9)."}, "TNF": {"tested_on": "TNF", "assay": "TNF production by macrophages activated by LPS", "type": "cell-based", "text": "(§1) This example illustrates an experiment showing that an exemplary guanylhydrazone-substituted compound, CNI-1493 (N,N′-bis(3,5-diacetylphenyl)decanediamide tetrakis(amidinohydrazone) tetrahydrochloride) inhibited the p38 MAP kinase pathway. […] Further evidence for the mechanism of translation suppression was given by experiments using constructs in which the 5′UTR and the 3′UTR of TNF to drive expression of a reporter molecule. Both the 5′UTR and the 3′UTR regions of the TNF gene were required to elicit maximal translation suppression by CNI-1493. The effect of CNI-1493 on p38 MAPK was next determined as p38 MAPK has been implicated in the regulation of TNF translation."}, "HIV 1-LAV": {"tested_on": "HIV 1-LAV", "assay": "HIV replication in PHA-activated primary T cells, reverse transcriptase (RT) assay", "type": "cell-based", "description": "(§2) Cell lysates were prepared for immunoprecipitation and immunoblotting 15 minutes after administration of LPS. In FIGS. 2B, 2C and 2D PHA-activated T cells were pretreated with control diluent or various concentrations of CNI-1493 for one hour, infected with HIV 1-LAV as in FIG. 1, and cultured for 10 days. FIG. 2B is a graph of dose-dependent inhibition by CNI-1493 of HIV-infection as assessed by the accumulation of reverse transcriptase (RT) at day 6 of culture. FIG. 2C is a graph of HIV inhibition by […] CNI-1493 over time. FIG. 2D is an immunoblot of phospho-p38 MAPK expression in HIV-1 infected cells on day 6 after culture treated with/without […] CNI-1493.\nThis example illustrates a role for the p38 MAP kinase pathway in HIV-1 infection of primary T cells, specifically addressing the hypothesis that activation of p38 MAPK is required for HIV-1 infection of primary T lymphocytes. For studies of human T cells, buffy coats were obtained by elutriation from normal human donors to the Long Island Blood Bank Services. Peripheral blood mononuclear cells (PBMC's) were isolated by density gradient centrifugation through Ficoll-Hypaque (Hypaque, Pharmacia). […]\nPrimary T cells activated with PHA were pretreated (or not) with CNI-1493 for one hour, infected with the LAV strain of HIV, and RT activity measured at various time points after infection, up to 10 days."}, "p38 MAPK [1]": {"target": "T1, p38 MAPK (Homo sapiens, UniProt Q16539)", "T1 construct": "endogenous in cells; host or cells: human PBMCs", "T1 sequence (Q16539 whole entry)": "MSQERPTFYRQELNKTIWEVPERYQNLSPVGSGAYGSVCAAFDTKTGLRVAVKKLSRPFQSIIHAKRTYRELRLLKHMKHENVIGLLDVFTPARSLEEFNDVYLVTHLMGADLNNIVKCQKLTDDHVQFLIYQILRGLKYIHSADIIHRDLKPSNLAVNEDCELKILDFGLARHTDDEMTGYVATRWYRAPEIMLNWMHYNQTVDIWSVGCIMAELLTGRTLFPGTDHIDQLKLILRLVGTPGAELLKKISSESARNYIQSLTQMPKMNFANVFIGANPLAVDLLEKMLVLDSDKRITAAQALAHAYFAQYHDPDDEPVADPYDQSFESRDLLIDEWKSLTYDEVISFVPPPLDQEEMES", "assay": "p38 MAPK activity in human PBMC's after addition of LPS", "type": "cell-based", "conditions": "human PBMC's pretreated with compound", "text": "as §1"}, "p38 MAP kinase": {"target": "T2, p38 MAP kinase (Homo sapiens, UniProt Q16539)", "T2 construct": "Endogenous p38 was immunoprecipitated with polyclonal p38 antibody; endogenous in cells; host or cells: Jurkat cells (ATCC)", "T2 sequence (Q16539 whole entry)": "as above", "assay": "p38 MAP kinase activity (GST-ATF2 phosphorylation) in Jurkat cells stimulated with anti-CD3/anti-CD28", "type": "cell-based", "text": "For studies of human T cells, buffy coats were obtained by elutriation from normal human donors to the Long Island Blood Bank Services. Peripheral blood mononuclear cells (PBMC's) were isolated by density gradient centrifugation through Ficoll-Hypaque (Hypaque. Pharmacia); typically one preparation yielded 200×10^6 cells. T cells were isolated by passing through a T cell column (R&D) as per manufacturer's instructions. Jurkat cells were obtained from ATCC and maintained in DMEM containing 10% heat-inactivated fetal bovine serum, antibiotics and L-glutamine.\nA rabbit polyclonal antibody against p38, and the recombinant GST-AFT2 plasmid where a gift of Dr. Roger Davis (Howard Hughes Institute, Worcester, Mass.). A GST-AFT2 fusion protein was purified by affinity chromatography using glutatione-agarose, as per manufacturer's instructions (Pharmacia, Inc.). The human monoclonal anti-CD3 antibody was purchased from Pharmingen and a human monoclonal anti-CD28 antibody was purchased.\nWhole cell lysates were prepared using kinase lysis buffer, containing a final concentration of 20 mM Tris pH 7.5, 10% glycerol, 1% Triton X-100, 0.137M NaCl, 25 mM B-glycerophosphate, 2 mM EDTA, 1 mM orthovanadate, 2 mM pyrophosphate, 10 μg/ml Leupeptin, 1 mM PMSF. Proteins were fractionated on a 12% SDS-PAGE gel, transferred by electrophoresis to PVDF membranes (Biorad, Inc.) and probed with a 1:1000 dilution of a rabbit polyclonal antibody that immunospecifically recognizes phosphorylated human p38 MAPK (Santa Cruz Biotechnology, Inc.). Binding to antibody was detected using enhanced chemiluminescence (Amersham International PLC).\n2-5×10^6 cells were lysed after appropriate pretreatment in 500-1000 μl kinase lysis buffer and centrifuged at 14,000×g for 15 minutes at 4° C. Endogenous p38 was immunoprecipitated with polyclonal p38 antibody prebound to protein-A agarose for one hour at room temp. […]"}, "p38 MAPK [2]": {"tested_on": "p38 MAPK", "assay": "phospho-p38 MAPK levels in HIV-1 infected T cells (immunoprecipitation/immunoblot)", "type": "cell-based, human", "description": "as §2\nT cells were infected with HIV 1-LAV in the presence of […] 18-mer, refed every 3-4 days with media containing fresh oligomer and supernatants collected at various time points for RT assay. Simultaneously, cells were also plated, treated similarly and harvested for phospho-p38 MAPK levels assayed by immunoprecipitation at various time points as measured by RT assay. Shown in this figure is the effect of addition of sense and antisense p38 MAPK oligonucleotide on phospho-p38 levels and its correlation with HIV replication, as measured by RT.\nWhole cell lysates were prepared using kinase lysis buffer containing a final concentration of 20 mM Tris pH 7.5, 10% glycerol, 1% Triton X-100, 0.137M NaCl, 25 mM B-glyceropliospliate. […]"}, "human T lymphocytes": {"tested_on": "human T lymphocytes", "assay": "T lymphocyte activation measured by IL-2 synthesis after a-CD3 and a-CD28 stimulation", "type": "cell-based", "conditions": "human T lymphocytes stimulated with a-CD3 and a CD28", "text": "Without being limited by any theory regarding the mode of action of the multivalent guanylhydrazones, these compounds may work by disrupting the p38 MAPK pathway. p38 MAP kinase pathway plays a critical role in the activation of human T lymphocytes and this pathway is inhibited by the multivalent guanylhydrazone compounds. […] The activation of the p38 MAP kinase pathway was inhibited by the addition of a multivalent guanylhydrazone to the stimulated T lymphocytes. […] In addition, the assays of the present invention may include other in vivo assays to measure the effects of the test compounds on T cell activation. For example, test compounds may be assayed for their ability to inhibit activation of T cells. In such assays, test compounds may be added to T cells co-stimulated with a-CD3 and a-CD28. The stimulation of the T cells should result in the synthesis and secretion of cytokines, such as IL-2."}, "[3]": {"conditions": "1 μM 18-mer, day 7 and day 10 after infection, FIG. 3"}}}
{"compound": "CC(C)c1nc(CN(C)C(=O)N[C@H](C(=O)N[C@@H](Cc2ccccc2)C[C@H](O)[C@H](Cc2ccccc2)NC(=O)OCc2cncs2)C(C)C)cs1", "note": "[ABT-538]", "values": [{"measurement": "CD4 lymphocyte counts", "setting": "HIV-1", "value": "rise substantially"}, {"measurement": "plasma HIV-1 levels", "setting": "HIV-1", "value": "decrease exponentially"}]}
{"compound": "CC(=NNC(=N)N)c1cc(NC(=O)CCCCCCCCC(=O)Nc2cc(C(C)=NNC(=N)N)cc(C(C)=NNC(=N)N)c2)cc(C(C)=NNC(=N)N)c1.Cl.Cl.Cl.Cl", "note": "[CNI-1493, N,N′-bis(3,5-diacetylphenyl)decanediamide tetrakis(amidinohydrazone) tetrahydrochloride]", "values": [{"measurement": "level of MIP 1α during LAV infection of primary T cells", "setting": "MIP 1α and MIP 1β; FIG. 4", "value": "not decreased"}, {"measurement": "level of MIP 1β during LAV infection of primary T cells", "setting": "MIP 1α and MIP 1β; FIG. 4", "value": "not decreased"}, {"measurement": "chemokine levels (MIP 1α and 1β) day 6", "setting": "MIP 1α and MIP 1β; day 6 of HIV-1 infection", "value": "slightly elevated"}, {"measurement": "chemokine levels (MIP 1α and 1β) day 9", "setting": "MIP 1α and MIP 1β; day 9 of HIV-1 infection", "value": "normal"}, {"measurement": "TNF production by macrophages activated by LPS", "setting": "TNF", "value": "inhibit TNF production"}, {"measurement": "synthesis of 26 kDA membrane form of TNF", "setting": "TNF", "value": "blocked the synthesis"}, {"measurement": "IC50", "setting": "HIV 1-LAV; primary T cells activated with PHA, pretreated one hour, LAV strain of HIV, RT activity, FIG. 2B, read-out: IC50 of inhibition of HIV replication in T-cells", "value": "~0.5", "unit": "µM"}, {"measurement": "p38 MAPK activity after the addition of LPS", "setting": "p38 MAPK [1]", "value": "suppression of p38 MAPK activity"}, {"measurement": "effect on anti-CD3 stimulated p38 MAPK activity", "setting": "p38 MAP kinase; anti-CD3 alone", "value": "unaffected"}, {"measurement": "inhibition of stimulated p38 MAPK activity", "setting": "p38 MAP kinase; anti-CD28 stimulation (as worded: stimulation of p38 MAPK), dose of 1.5 μM", "value": "approximately 50%"}, {"measurement": "inhibition of p38 MAPK activity on co-stimulation with anti-CD3 and anti-CD28", "setting": "p38 MAP kinase; dose of 1.5 μM", "value": "inhibited completely"}, {"measurement": "p38 MAP kinase activity in HIV-infected T cells", "setting": "p38 MAPK [2]; 1 μM, FIGS. 2C, 2D", "value": "suppression of p38 MAP kinase activity"}, {"measurement": "activation of T lymphocytes as measured by IL-2 synthesis", "setting": "human T lymphocytes", "value": "inhibition of activation of the T lymphocytes"}]}
{"compound": "p38 MAP kinase antisense oligonucleotides: 18-mer phosphothiorate oligonucleotide, antisense to bp 324-341 of human p38 MAPK, 5′GTCTTGTTCAGCTCCTGC3′", "values": [{"measurement": "HIV replication as measured by RT", "setting": "HIV 1-LAV; [3]", "value": "decreased HIV replication"}, {"measurement": "phospho-p38 MAPK activity", "setting": "p38 MAPK [2]; [3]", "value": "decrease in phospho-p38 MAPK activity"}]}
